The subject of one assay is DR7. Particulars: read-out: PADRE Class II Binding Affinities DR7.
For another assay, the system named is DQ3.1. The following applies: read-out: PADRE Class II Binding Affinities; Table VIII A.
A further assay deals with DR5. The following applies: read-out: PADRE Class II Binding Affinities DR5.
Another assay relates to human PBMC T cell lines. In kind it is cell-based.
Another assay concerns the target DR2w2a (Homo sapiens, UniProt P01903+Q30154). Description: biochemical. The following applies: PADRE Class II Binding Affinities DR2w282, Table IX.
A further assay has as its target DR1 (Homo sapiens, UniProt P01903+P01911, A100R/D57E/F55L/F60I/F76Y/I96L/L162R/M171V/P40L/Q125E/R42F/V115G/Y59C). The assay can be described thus: biochemical. Particulars: PADRE Class II Binding Affinities DR1, Table IX.
The target of the next assay is DR4w4 (Homo sapiens, UniProt P01903+P01911, A100K/A169T/F76Y/I96L/K127E/L162R/M171V/N62H/P40V/Q125Y/R42H/S133A/S149N/S66Y/V115G/V209L/W38E). Description: biochemical. Particulars: PADRE Class II Binding Affinities DR4w4, Table IX.

“And” between values parts separate entries of the source, which are not always exact repeats. Equal entries are not always repeated. Where two headings read alike, the source gives them in different places. Non-standard residues stand in square brackets, D forms with d. Residues, ends and D or L forms follow the SMILES beside them. Cha = N[C@@H](CC1CCCCC1)C(=O)O

Data on 13 compounds can be found in patent publication US6413935B1, “Induction of immune response against desired determinants” (priority 1993, dated 2002).

Sequence of DR2w2a (P01903 26-254): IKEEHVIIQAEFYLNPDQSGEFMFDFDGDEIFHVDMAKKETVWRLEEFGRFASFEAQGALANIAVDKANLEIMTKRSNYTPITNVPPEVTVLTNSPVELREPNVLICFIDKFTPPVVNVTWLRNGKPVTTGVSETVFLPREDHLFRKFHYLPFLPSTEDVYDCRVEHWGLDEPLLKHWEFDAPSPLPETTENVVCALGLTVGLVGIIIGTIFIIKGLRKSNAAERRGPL
Sequence of DR2w2a (Q30154 30-266): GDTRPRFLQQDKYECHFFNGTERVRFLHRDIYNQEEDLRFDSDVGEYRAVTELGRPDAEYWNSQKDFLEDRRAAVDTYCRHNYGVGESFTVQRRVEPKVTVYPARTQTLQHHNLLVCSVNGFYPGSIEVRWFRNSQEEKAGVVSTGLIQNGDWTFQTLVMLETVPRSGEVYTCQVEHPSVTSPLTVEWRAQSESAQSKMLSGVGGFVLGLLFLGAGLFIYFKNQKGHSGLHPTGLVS

With `CC(C)C[C@H](NC(=O)[C@@H](NC(=O)[C@H](C)NC(=O)[C@H](C)NC(=O)[C@H](C)NC(=O)[C@H](C)NC(=O)[C@H](CC1CCCCC1)NC(=O)[C@H](C)NC(=O)[C@@H](C)N)[C@@H](C)O)C(=O)N[C@@H](CCCNC(=N)N)C(=O)N[C@@H](C)C(=O)N[C@@H](C)C(=O)N[C@H](C)C(N)=O` [Peptide 906.39] (H-[dA]A[Cha]AAAATLRAA[dA]-NH2; N-terminus and C-terminus assumed), the IC50 worked out at 86.2 nM in the assay with DR7, 28.8 nM in the assay on DQ3.1 and 4.3 nM in the assay on DR5.

With `CC(C)C[C@H](NC(=O)[C@@H](NC(=O)[C@H](C)NC(=O)[C@H](C)NC(=O)[C@H](C)NC(=O)[C@H](C)NC(=O)[C@H](CC1CCCCC1)NC(=O)[C@H](C)NC(=O)[C@@H](C)N)[C@@H](C)O)C(=O)N[C@@H](CCCCN)C(=O)N[C@@H](CCCCN)C(=O)N[C@@H](C)C(=O)N[C@H](C)C(N)=O` [Peptide 906.40] (H-[dA]A[Cha]AAAATLKKA[dA]-NH2; N-terminus and C-terminus assumed), the results for the IC50 in the assay with DR7 (Table VIII A), in the assay on DQ3.1 and with DR5 (Table VIII A) were 556 nM, 36.6 nM and 16.7 nM, respectively.

Regarding `CC(C)C[C@H](NC(=O)[C@@H](NC(=O)[C@H](C)NC(=O)[C@H](C)NC(=O)[C@H](C)NC(=O)[C@H](C)NC(=O)[C@H](CC1CCCCC1)NC(=O)[C@H](C)NC(=O)[C@@H](C)N)[C@@H](C)O)C(=O)N[C@@H](CCCCN)C(=O)N[C@H](C(=O)N[C@@H](C)C(=O)N[C@H](C)C(N)=O)C(C)C` [Peptide 906.43] (H-[dA]A[Cha]AAAATLKVA[dA]-NH2; N-terminus and C-terminus assumed), the IC50 in the assay on DR7 (Table VIII A) stood at 49 nM; with DQ3.1, 24.7 nM; in the assay on DR5 (Table VIII A) it was 9.5 nM.

As for `CC[C@H](C)[C@H](NC(=O)[C@H](CCCCN)NC(=O)[C@H](CC(C)C)NC(=O)[C@@H](NC(=O)[C@H](C)NC(=O)[C@H](C)NC(=O)[C@H](C)NC(=O)[C@H](C)NC(=O)[C@H](CC1CCCCC1)NC(=O)[C@H](C)NC(=O)[C@@H](C)N)[C@@H](C)O)C(=O)N[C@@H](C)C(=O)N[C@H](C)C(N)=O` [Peptide 906.45] (H-[dA]A[Cha]AAAATLKIA[dA]-NH2; N-terminus and C-terminus assumed), the IC50 was 25 nM in the assay on DR7 (Table VIII A), 56.2 nM in the assay on DQ3.1 and 28.2 nM in the assay with DR5 (Table VIII A).

As to `CC(C)C[C@H](NC(=O)[C@@H](NC(=O)[C@H](C)NC(=O)[C@H](C)NC(=O)[C@H](C)NC(=O)[C@H](C)NC(=O)[C@H](CC1CCCCC1)NC(=O)[C@H](C)NC(=O)[C@@H](C)N)[C@@H](C)O)C(=O)N[C@@H](CCCCN)C(=O)N[C@@H](C)C(=O)N[C@@H](CCC(N)=O)C(=O)N[C@H](C)C(N)=O` [Peptide 906.48] (H-[dA]A[Cha]AAAATLKAQ[dA]-NH2; N-terminus and C-terminus assumed), the IC50 turned out to be 96.2 nM in the assay with DR7 (Table VIII A), 18.4 nM with DQ3.1 and 20 nM in the assay with DR5 (Table VIII A).

With `CC(C)C[C@H](NC(=O)[C@@H](NC(=O)[C@H](C)NC(=O)[C@H](C)NC(=O)[C@H](C)NC(=O)[C@H](C)NC(=O)[C@H](CC1CCCCC1)NC(=O)[C@H](C)NC(=O)[C@@H](C)N)[C@@H](C)O)C(=O)N[C@@H](CCCCN)C(=O)N[C@@H](C)C(=O)N[C@H](C(=O)N[C@H](C)C(N)=O)C(C)C` [Peptide 906.49] (H-[dA]A[Cha]AAAATLKAV[dA]-NH2; N-terminus and C-terminus assumed), the IC50 worked out at 28.4 nM in the assay on DR7 (Table VIII A), 14.6 nM in the assay with DQ3.1 and 4.5 nM with DR5 (Table VIII A).

For `CC(C)C[C@H](NC(=O)[C@@H](NC(=O)[C@H](CCCCN)NC(=O)[C@H](C)NC(=O)[C@H](C)NC(=O)[C@@H](NC(=O)[C@H](CC1CCCCC1)NC(=O)[C@H](CCCCN)NC(=O)[C@@H](C)N)C(C)C)[C@@H](C)O)C(=O)N[C@@H](CCCCN)C(=O)N[C@@H](C)C(=O)N[C@@H](C)C(=O)N[C@H](C)C(N)=O` [Peptide 965.14], in the assay on human PBMC T cell lines, the “Donors with significant (>10,000 cpm) T cell response / donors tested, second stimulation” value was 1/5 and the “Donors with significant (>10,000 cpm) T cell response / donors tested, third stimulation” value is given as 3/5. For the same compound, the IC50 in the assay on DR5 (Table IX) was 34.5 nM.

Take `CC(C)C[C@H](NC(=O)[C@@H](NC(=O)[C@H](C)NC(=O)[C@H](C)NC(=O)[C@H](C)NC(=O)[C@@H](NC(=O)[C@H](CC1CCCCC1)NC(=O)[C@H](CCCCN)NC(=O)[C@@H](C)N)C(C)C)[C@@H](C)O)C(=O)N[C@@H](CCCCN)C(=O)N[C@@H](C)C(=O)N[C@@H](C)C(=O)N[C@H](C)C(N)=O` [Peptide 965.16]: in the assay with human PBMC T cell lines, the “Donors with significant (>10,000 cpm) T cell response / donors tested, second stimulation” value was 0/5 and the “Donors with significant (>10,000 cpm) T cell response / donors tested, third stimulation” value is recorded as 1/5.

On to `CSCC[C@H](NC(=O)[C@@H](NC(=O)[C@H](CC1CCCCC1)NC(=O)[C@H](CCCCN)NC(=O)[C@@H](C)NC(=O)[C@H](CO)NC(=O)[C@H](CO)NC(=O)[C@@H](N)CCCCN)C(C)C)C(=O)N[C@@H](C)C(=O)N[C@@H](C)C(=O)N[C@H](C(=O)N[C@@H](CC(C)C)C(=O)N[C@@H](CCCCN)C(=O)N[C@@H](C)C(=O)N[C@@H](C)C(=O)N[C@H](C)C(N)=O)[C@@H](C)O` [Peptide 965.19], for which the IC50 at DR2w2a turned out to be 23.5 nM.

On to `CC(C)C[C@H](NC(=O)[C@@H](NC(=O)[C@H](Cc1c[nH]c2ccccc12)NC(=O)[C@H](C)NC(=O)[C@H](CCCCN)NC(=O)[C@@H](NC(=O)[C@H](CC1CCCCC1)NC(=O)[C@H](CCCCN)NC(=O)[C@@H](C)N)C(C)C)[C@@H](C)O)C(=O)N[C@@H](CCCCN)C(=O)N[C@@H](C)C(=O)N[C@@H](C)C(=O)N[C@H](C)C(N)=O` [Peptide 965.021], for which the IC50 in the assay on DR7 (Table IX) was 89.3 nM; in the assay with DR7 (Table IX, listed as 965.022), 338 nM; on DR2w2a it was 5.7 nM and 9 nM; with DR5 (Table IX), 4.1 nM; in the assay on DR5 (Table IX, listed as 965.022), 1.1 nM; on DR1 it was 0.8 nM and 0.7 nM.

Regarding `CC(C)C[C@H](NC(=O)[C@@H](NC(=O)[C@H](Cc1ccc(O)cc1)NC(=O)[C@H](C)NC(=O)[C@H](Cc1c[nH]c2ccccc12)NC(=O)[C@@H](NC(=O)[C@H](CC1CCCCC1)NC(=O)[C@H](CCCCN)NC(=O)[C@@H](C)N)C(C)C)[C@@H](C)O)C(=O)N[C@@H](CCCCN)C(=O)N[C@@H](C)C(=O)N[C@@H](C)C(=O)N[C@H](C)C(N)=O` [Peptide 965.041], the IC50 at DR2w2a turned out to be 2.5 nM; on DR4w4, 0.5 nM; in the assay on DR5 (Table IX), 4.7 nM; on DR1 it was 0.5 nM.

As to `CC(C)C[C@H](NC(=O)[C@@H](NC(=O)[C@@H](NC(=O)[C@H](C)NC(=O)[C@H](Cc1c[nH]c2ccccc12)NC(=O)[C@@H](NC(=O)[C@H](CC1CCCCC1)NC(=O)[C@H](CCCCN)NC(=O)[C@@H](C)N)C(C)C)C(C)C)[C@@H](C)O)C(=O)N[C@@H](CCCCN)C(=O)N[C@@H](C)C(=O)N[C@@H](C)C(=O)N[C@H](C)C(N)=O` [Peptide 965.042], the IC50 on DR2w2a is 9.5 nM; at DR4w4, 1 nM; on DR1 it was 0.2 nM.

On to `CC(C)C[C@H](NC(=O)[C@@H](NC(=O)[C@H](CC(N)=O)NC(=O)[C@H](C)NC(=O)[C@H](C)NC(=O)[C@@H](NC(=O)[C@H](CC1CCCCC1)NC(=O)[C@H](CCCCN)NC(=O)[C@@H](C)N)C(C)C)[C@@H](C)O)C(=O)N[C@@H](CCCCN)C(=O)N[C@@H](C)C(=O)N[C@@H](C)C(=O)N[C@H](C)C(N)=O` [Peptide 965.081], for which, in the assay on human PBMC T cell lines, the “Donors with significant (>10,000 cpm) T cell response / donors tested, second stimulation” value is reported as 1/5 and the “Donors with significant (>10,000 cpm) T cell response / donors tested, third stimulation” value is 2/5. Moreover, in the assay on DR5 (Table IX, listed as 965.082), the IC50 was 12.5 nM.
